Assay results taken from ChEMBL document CHEMBL3991601, “The target landscape of clinical kinase drugs” (Science, 2017).
Activity calls are given as the source filed them.

What was measured:
[1] = target: T1, Mitogen-activated protein kinase kinase kinase 6 (Homo sapiens, UniProt O95382)
T1 sequence (O95382 whole entry): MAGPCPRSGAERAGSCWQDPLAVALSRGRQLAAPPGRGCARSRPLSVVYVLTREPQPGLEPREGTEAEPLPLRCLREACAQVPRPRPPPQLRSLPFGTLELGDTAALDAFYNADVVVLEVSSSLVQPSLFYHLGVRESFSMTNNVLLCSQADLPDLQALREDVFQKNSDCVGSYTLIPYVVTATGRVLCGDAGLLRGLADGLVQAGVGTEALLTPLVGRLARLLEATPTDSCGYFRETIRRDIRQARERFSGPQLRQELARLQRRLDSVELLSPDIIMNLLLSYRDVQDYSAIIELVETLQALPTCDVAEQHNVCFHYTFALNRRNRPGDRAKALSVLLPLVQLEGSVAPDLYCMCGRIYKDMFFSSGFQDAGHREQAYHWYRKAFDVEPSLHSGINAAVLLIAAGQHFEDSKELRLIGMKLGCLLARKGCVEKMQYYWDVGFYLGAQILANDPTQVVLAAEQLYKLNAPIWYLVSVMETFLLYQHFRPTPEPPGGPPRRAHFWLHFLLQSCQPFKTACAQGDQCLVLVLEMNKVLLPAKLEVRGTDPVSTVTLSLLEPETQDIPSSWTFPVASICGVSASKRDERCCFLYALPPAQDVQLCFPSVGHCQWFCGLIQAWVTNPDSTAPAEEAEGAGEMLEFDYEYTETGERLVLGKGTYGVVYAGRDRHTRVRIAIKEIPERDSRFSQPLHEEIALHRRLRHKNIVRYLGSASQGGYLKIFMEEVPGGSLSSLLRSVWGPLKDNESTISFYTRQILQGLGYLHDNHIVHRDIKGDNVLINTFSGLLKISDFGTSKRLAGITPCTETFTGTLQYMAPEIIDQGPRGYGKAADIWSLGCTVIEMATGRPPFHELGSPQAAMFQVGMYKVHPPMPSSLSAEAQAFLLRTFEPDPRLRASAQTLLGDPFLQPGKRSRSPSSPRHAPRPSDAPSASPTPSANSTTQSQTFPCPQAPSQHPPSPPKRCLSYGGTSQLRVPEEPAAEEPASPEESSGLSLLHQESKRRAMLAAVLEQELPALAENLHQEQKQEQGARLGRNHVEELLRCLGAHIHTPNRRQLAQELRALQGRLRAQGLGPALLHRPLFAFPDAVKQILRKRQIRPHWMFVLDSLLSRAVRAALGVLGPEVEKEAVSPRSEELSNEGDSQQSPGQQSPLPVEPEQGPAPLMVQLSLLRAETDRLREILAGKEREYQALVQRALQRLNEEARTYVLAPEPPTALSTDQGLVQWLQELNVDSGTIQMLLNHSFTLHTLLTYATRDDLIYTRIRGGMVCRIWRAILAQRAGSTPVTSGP

[2] = target: T2, Delta(24)-sterol reductase (Homo sapiens, UniProt Q15392)
T2 sequence (Q15392 whole entry): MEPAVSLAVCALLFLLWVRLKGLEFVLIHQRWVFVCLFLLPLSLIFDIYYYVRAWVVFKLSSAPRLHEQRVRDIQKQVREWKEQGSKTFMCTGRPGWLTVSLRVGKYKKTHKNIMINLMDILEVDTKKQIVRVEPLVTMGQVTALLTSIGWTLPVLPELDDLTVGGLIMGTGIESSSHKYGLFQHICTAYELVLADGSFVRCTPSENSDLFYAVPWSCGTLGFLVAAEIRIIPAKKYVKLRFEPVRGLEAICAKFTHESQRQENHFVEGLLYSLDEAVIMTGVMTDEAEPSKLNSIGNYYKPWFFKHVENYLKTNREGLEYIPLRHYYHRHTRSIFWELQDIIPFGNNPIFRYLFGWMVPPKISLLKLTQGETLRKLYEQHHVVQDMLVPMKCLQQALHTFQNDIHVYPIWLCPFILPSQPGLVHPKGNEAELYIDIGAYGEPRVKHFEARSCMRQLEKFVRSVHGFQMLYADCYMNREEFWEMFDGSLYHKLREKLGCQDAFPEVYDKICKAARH

[3] = target: T3, Serine/threonine-protein kinase Nek1 (Homo sapiens, UniProt Q96PY6)
T3 sequence (Q96PY6 whole entry): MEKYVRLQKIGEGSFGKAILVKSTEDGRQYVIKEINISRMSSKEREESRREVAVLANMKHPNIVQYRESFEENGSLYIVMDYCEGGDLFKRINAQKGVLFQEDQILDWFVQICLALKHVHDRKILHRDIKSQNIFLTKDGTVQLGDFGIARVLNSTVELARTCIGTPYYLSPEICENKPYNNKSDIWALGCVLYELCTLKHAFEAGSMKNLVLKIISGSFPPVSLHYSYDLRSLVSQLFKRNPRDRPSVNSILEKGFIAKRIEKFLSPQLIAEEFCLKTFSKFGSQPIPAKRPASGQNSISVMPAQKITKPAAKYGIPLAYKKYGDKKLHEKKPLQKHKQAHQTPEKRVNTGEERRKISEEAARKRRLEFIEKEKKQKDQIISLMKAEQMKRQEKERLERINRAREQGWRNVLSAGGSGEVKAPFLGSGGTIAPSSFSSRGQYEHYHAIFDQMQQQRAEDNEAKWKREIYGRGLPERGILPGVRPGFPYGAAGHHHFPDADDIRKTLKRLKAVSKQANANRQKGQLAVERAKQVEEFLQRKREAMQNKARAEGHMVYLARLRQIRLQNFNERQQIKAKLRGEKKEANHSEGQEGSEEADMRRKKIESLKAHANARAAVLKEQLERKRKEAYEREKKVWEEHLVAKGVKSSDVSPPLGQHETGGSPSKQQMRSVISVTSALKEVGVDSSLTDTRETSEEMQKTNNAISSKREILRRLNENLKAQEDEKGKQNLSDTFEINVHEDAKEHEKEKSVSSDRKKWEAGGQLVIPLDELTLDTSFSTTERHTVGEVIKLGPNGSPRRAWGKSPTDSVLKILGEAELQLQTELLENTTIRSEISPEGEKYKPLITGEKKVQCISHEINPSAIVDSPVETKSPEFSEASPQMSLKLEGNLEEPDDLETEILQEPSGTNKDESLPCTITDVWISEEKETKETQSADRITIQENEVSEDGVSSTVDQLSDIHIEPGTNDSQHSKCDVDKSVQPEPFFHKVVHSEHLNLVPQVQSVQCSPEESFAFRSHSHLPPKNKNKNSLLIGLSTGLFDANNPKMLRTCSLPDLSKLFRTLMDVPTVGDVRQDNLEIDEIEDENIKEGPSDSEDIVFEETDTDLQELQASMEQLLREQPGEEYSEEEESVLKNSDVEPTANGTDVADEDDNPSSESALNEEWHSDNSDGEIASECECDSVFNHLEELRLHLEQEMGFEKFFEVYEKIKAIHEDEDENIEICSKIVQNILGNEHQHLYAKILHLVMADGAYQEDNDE

[4] = target: ATP-dependent RNA helicase DDX3X (Homo sapiens, UniProt O00571)
Chain of ATP-dependent RNA helicase DDX3X (O00571 whole entry): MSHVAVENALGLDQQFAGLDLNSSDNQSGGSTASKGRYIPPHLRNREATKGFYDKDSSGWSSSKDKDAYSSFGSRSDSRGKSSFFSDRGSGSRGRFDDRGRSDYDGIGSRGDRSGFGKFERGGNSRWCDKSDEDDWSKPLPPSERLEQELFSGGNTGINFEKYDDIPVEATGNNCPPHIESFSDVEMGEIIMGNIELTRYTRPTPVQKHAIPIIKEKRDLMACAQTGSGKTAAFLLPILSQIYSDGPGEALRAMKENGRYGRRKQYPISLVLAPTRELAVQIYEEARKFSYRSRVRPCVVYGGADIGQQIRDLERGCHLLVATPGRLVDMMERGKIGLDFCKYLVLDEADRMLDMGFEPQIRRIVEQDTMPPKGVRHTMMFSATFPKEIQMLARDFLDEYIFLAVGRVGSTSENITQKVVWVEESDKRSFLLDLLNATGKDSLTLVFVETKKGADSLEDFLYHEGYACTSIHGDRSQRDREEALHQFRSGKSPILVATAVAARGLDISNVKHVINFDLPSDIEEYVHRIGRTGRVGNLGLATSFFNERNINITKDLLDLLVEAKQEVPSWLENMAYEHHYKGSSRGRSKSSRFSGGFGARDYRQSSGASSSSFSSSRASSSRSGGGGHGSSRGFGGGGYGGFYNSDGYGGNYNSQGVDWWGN

Measured: Kd
Further: in the data inactive means no Kd found up to 30 µM.

NC[C@@](O)(c1ccc(Cl)cc1)c1ccc(-c2cn[nH]c2)cc1 [AT-13148]
inactive: [1] > 30 µM | [2] > 30 µM | [3] > 30 µM | [4] > 30 µM

C=CCN(/C=C1/C(=O)O[C@H](COC)[C@@]2(C)C1=C(O)C(=O)C1=C2[C@H](OC(C)=O)C[C@]2(C)C(=O)CC[C@@H]12)CC=C [SONOLISIB]
inactive: [1] > 30 µM | [2] > 30 µM | [3] > 30 µM | [4] > 30 µM

COc1cc2nccc(Oc3ccc(NC(=O)C4(C(=O)Nc5ccc(F)cc5)CC4)cc3)c2cc1OC [CABOZANTINIB]
inactive: [1] > 30 µM | [2] > 30 µM | [3] > 30 µM | [4] > 30 µM

C[C@@H]1COC(Nc2ccc3ncnc(Nc4ccc(OCc5nccs5)c(Cl)c4)c3c2)=N1 [VARLITINIB]
inactive: [1] > 30 µM | [2] > 30 µM | [3] > 30 µM | [4] > 30 µM

Cc1c(NC(=O)OC[C@@H]2COCCN2)cn2ncnc(Nc3ccc4c(cnn4Cc4cccc(F)c4)c3)c12 [AC-480]
inactive: [1] > 30 µM | [2] > 30 µM | [3] > 30 µM | [4] > 30 µM

COc1ccc(-c2ccc3ncc4c(c3c2)n(-c2ccc(N3CCNCC3)c(C(F)(F)F)c2)c(=O)n4C)cn1 [BGT-226 FREE BASE]
inactive: [1] > 30 µM | [2] > 30 µM | [3] > 30 µM | [4] > 30 µM

CCN(CCCOc1ccc2c(Nc3cc(CC(=O)Nc4cccc(F)c4)n[nH]3)ncnc2c1)CCOP(=O)(O)O [BARASERTIB]
inactive: [1] > 30 µM | [2] > 30 µM | [3] > 30 µM | [4] > 30 µM

Cc1cc(Nc2nc(N[C@@H](C)c3ncc(F)cn3)ncc2Cl)n[nH]1 [AZD-1480]
inactive: [1] > 30 µM | [2] > 30 µM | [3] > 30 µM | [4] > 30 µM

CCc1cc2c(cc1N1CCC(N3CCOCC3)CC1)C(C)(C)c1[nH]c3cc(C#N)ccc3c1C2=O [ALECTINIB]
inactive: [1] > 30 µM | [2] > 30 µM | [3] > 30 µM | [4] > 30 µM

FC(F)(F)c1ccc(CNc2ccc(Cc3c[nH]c4ncc(Cl)cc34)cn2)cn1 [PEXIDARTINIB]
inactive: [1] > 30 µM | [2] > 30 µM | [3] > 30 µM | [4] > 30 µM

O=S(=O)(c1cccc2c(O)nccc12)N1CCCNCC1 [HYDROXYFASUDIL]
inactive: [1] > 30 µM | [2] > 30 µM | [3] > 30 µM | [4] > 30 µM
